# Measurements reported in patent publication US20100267561A1, “HERBICIDAL PYRIDAZINONE DERIVATIVES” (priority 2007, published 2010).
# What was measured:
# Experiment in all cases: Test B pre-/postemergence plant response
# Type in all cases: in vivo
# [1] = tested on: pigweed (Amaranthus retroflexus)
# How it was run: (§1)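 Seeds were sown and sprayed preemergence, while plants at 2 to 18 cm (1- to 4-leaf stage) got postemergence sprays. Compounds were formulated in a non-phytotoxic solvent mixture with surfactant. After 13 to 15 days in a greenhouse, injury was rated visually against untreated controls, 0 (no effect) to 100 (complete control).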
# [2] = tested on: catchweed bedstraw (Galium aparine); conditions: Preemergence, scale 0 to 100
# How it was run: as §1
# [3] = tested on: cocklebur (Xanthium strumarium)
# How it was run: as §1
# [4] = tested on: large crabgrass (Digitaria sanguinalis)
# How it was run: as §1
# [5] = tested on: surinam grass (Brachiaria decumbens)
# How it was run: as §1
# [6] = tested on: Italian ryegrass (Lolium multiflorum)
# How it was run: as §1
# kochia (Kochia scoparia) = tested on: kochia (Kochia scoparia)
# How it was run: as §1
# [7] = tested on: downy bromegrass (Bromus tectorum)
# How it was run: as §1
# [8] = tested on: goosegrass (Eleusine indica)
# How it was run: as §1
# [9] = tested on: woolly cupgrass (Eriochloa villosa)
# How it was run: as §1
# [10] = tested on: common (oilseed) sunflower (Helianthus annuus); conditions: Preemergence
# How it was run: as §1
# [11] = tested on: common ragweed (Ambrosia elation)
# How it was run: as §1
# soybean (Glycine max) = tested on: soybean (Glycine max)
# How it was run: as §1
# [12] = Postemergence, 31 g ai/ha, scale 0 to 100, 0 no effect, 100 complete control
# [13] = Postemergence, 62 g ai/ha, scale 0 to 100
# [14] = Postemergence, 125 g ai/ha, scale 0 to 100
# [15] = Postemergence, 250 g ai/ha, scale 0 to 100
# [16] = Preemergence, 31 g ai/ha, 0 to 100 scale, 0 no effect, 100 complete control
# [17] = Preemergence, 62 g ai/ha, scale 0 to 100
# [18] = Preemergence, 125 g ai/ha, scale 0 to 100
# [19] = Preemergence, 250 g ai/ha, scale 0 to 100
substance,measurement,setting,value
4-[3-(4-chlorophenyl)-5-methyl-1H-pyrazol-3-yl]-5-hydroxy-2-methyl-3(2H)-pyridazinone [Compound 3],"Plant response rating, Pigweed",[1]; [12],0
same,"Plant response rating, Pigweed",[1]; [13],0
same,"Plant response rating, Pigweed",[1]; [14],10
same,"Plant response rating, Pigweed",[1]; [15],25
same,"Plant response rating, Pigweed",[1]; [16],0
same,"Plant response rating, Pigweed",[1]; [17],90
same,"Plant response rating, Pigweed",[1]; [18],90
same,"Plant response rating, Pigweed",[1]; [19],90
same,"Plant response rating, Galium",[2]; 62 g ai/ha,85
same,"Plant response rating, Galium",[2]; 125 g ai/ha,85
same,"Plant response rating, Galium",[2]; 250 g ai/ha,85
same,"Plant response rating, Cocklebur",[3]; [12],0
same,"Plant response rating, Cocklebur",[3]; [13],0
same,"Plant response rating, Cocklebur",[3]; [14],0
same,"Plant response rating, Cocklebur",[3]; [15],0
same,"Plant response rating, Cocklebur",[3]; [16],0
same,"Plant response rating, Cocklebur",[3]; [17],0
same,"Plant response rating, Cocklebur",[3]; [19],0
same,"Plant response rating, Crabgrass, Large",[4]; [12],100
same,"Plant response rating, Crabgrass, Large",[4]; [13],100
same,"Plant response rating, Crabgrass, Large",[4]; [14],100
same,"Plant response rating, Crabgrass, Large",[4]; [15],100
same,"Plant response rating, Crabgrass, Large",[4]; [16],90
same,"Plant response rating, Crabgrass, Large",[4]; [17],90
same,"Plant response rating, Crabgrass, Large",[4]; [18],100
same,"Plant response rating, Crabgrass, Large",[4]; [19],100
same,"Plant response rating, Surinam Grass",[5]; [12],100
same,"Plant response rating, Surinam Grass",[5]; [13],100
same,"Plant response rating, Surinam Grass",[5]; [14],100
same,"Plant response rating, Surinam Grass",[5]; [15],100
same,"Plant response rating, Surinam Grass",[5]; [16],100
same,"Plant response rating, Surinam Grass",[5]; [17],100
same,"Plant response rating, Surinam Grass",[5]; [18],100
same,"Plant response rating, Surinam Grass",[5]; [19],100
same,"Plant response rating, Ryegrass, Italian",[6]; [12],95
same,"Plant response rating, Ryegrass, Italian",[6]; [13],100
same,"Plant response rating, Ryegrass, Italian",[6]; [14],100
same,"Plant response rating, Ryegrass, Italian",[6]; [15],100
same,"Plant response rating, Ryegrass, Italian",[6]; [16],98
same,"Plant response rating, Ryegrass, Italian",[6]; [17],100
same,"Plant response rating, Ryegrass, Italian",[6]; [18],100
same,"Plant response rating, Ryegrass, Italian",[6]; [19],100
same,"Plant response rating, Kochia",kochia (Kochia scoparia); [12],0
same,"Plant response rating, Kochia",kochia (Kochia scoparia); [13],0
same,"Plant response rating, Kochia",kochia (Kochia scoparia); [14],60
same,"Plant response rating, Kochia",kochia (Kochia scoparia); [15],70
same,"Plant response rating, Kochia",kochia (Kochia scoparia); [16],0
same,"Plant response rating, Kochia",kochia (Kochia scoparia); [18],30
same,"Plant response rating, Kochia",kochia (Kochia scoparia); [19],30
same,"Plant response rating, Bromegrass, Downy",[7]; [12],5
same,"Plant response rating, Bromegrass, Downy",[7]; [13],5
same,"Plant response rating, Bromegrass, Downy",[7]; [14],5
same,"Plant response rating, Bromegrass, Downy",[7]; [15],5
same,"Plant response rating, Bromegrass, Downy",[7]; [16],50
same,"Plant response rating, Bromegrass, Downy",[7]; [17],60
same,"Plant response rating, Bromegrass, Downy",[7]; [18],95
same,"Plant response rating, Bromegrass, Downy","[7]; Preemergence, 250 g ai/ha, scale 0 to 100 (0 no effect, 100 complete control)",98
same,"Plant response rating, Goosegrass",[8]; [12],95
same,"Plant response rating, Goosegrass",[8]; [13],95
same,"Plant response rating, Goosegrass",[8]; [14],100
same,"Plant response rating, Goosegrass",[8]; [15],100
same,"Plant response rating, Goosegrass",[8]; [16],80
same,"Plant response rating, Goosegrass",[8]; [17],85
same,"Plant response rating, Goosegrass",[8]; [18],85
same,"Plant response rating, Goosegrass",[8]; [19],100
same,"Plant response rating, Cupgrass, Woolly",[9]; [12],100
same,"Plant response rating, Cupgrass, Woolly",[9]; [13],100
same,"Plant response rating, Cupgrass, Woolly",[9]; [14],100
same,"Plant response rating, Cupgrass, Woolly",[9]; [15],100
same,"Plant response rating, Cupgrass, Woolly",[9]; [16],50
same,"Plant response rating, Cupgrass, Woolly",[9]; [17],50
same,"Plant response rating, Cupgrass, Woolly",[9]; [18],90
same,"Plant response rating, Cupgrass, Woolly",[9]; [19],100
same,"Plant response rating, Sunflower","[10]; 31 g ai/ha, 0 to 100 scale, 0 no effect, 100 complete control",30
same,"Plant response rating, Sunflower","[10]; 62 g ai/ha, scale 0 to 100",40
same,"Plant response rating, Ragweed",[11]; [13],0
same,"Plant response rating, Ragweed",[11]; [14],0
same,"Plant response rating, Ragweed",[11]; [15],50
same,"Plant response rating, Ragweed",[11]; [16],0
same,"Plant response rating, Ragweed",[11]; [18],0
same,"Plant response rating, Ragweed",[11]; [19],0
same,"Plant response rating, Soybean",soybean (Glycine max); [12],0
same,"Plant response rating, Soybean",soybean (Glycine max); [13],40
same,"Plant response rating, Soybean",soybean (Glycine max); [14],40
same,"Plant response rating, Soybean",soybean (Glycine max); [15],60
same,"Plant response rating, Soybean",soybean (Glycine max); [16],0
same,"Plant response rating, Soybean",soybean (Glycine max); [17],0
same,"Plant response rating, Soybean",soybean (Glycine max); [18],0
same,"Plant response rating, Soybean",soybean (Glycine max); [19],0
